How the values were obtained:
Horseradish peroxidase = target: T1, Horseradish peroxidase (Armoracia rusticana, UniProt P00433); assay: Comparison of substrates for HRP detection on membranes, reflectance densitometer; format: biochemical; details: substrate 2 mg/mL, approximately three minutes
T1 sequence (P00433 31-353): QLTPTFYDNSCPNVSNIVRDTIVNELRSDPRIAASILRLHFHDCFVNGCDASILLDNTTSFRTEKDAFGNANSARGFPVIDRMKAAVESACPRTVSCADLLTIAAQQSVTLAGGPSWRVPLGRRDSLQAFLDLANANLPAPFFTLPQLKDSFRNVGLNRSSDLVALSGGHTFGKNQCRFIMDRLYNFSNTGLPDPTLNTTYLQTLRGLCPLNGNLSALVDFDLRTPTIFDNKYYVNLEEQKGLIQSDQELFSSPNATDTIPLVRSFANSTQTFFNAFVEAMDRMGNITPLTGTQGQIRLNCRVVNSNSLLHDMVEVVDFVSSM
Description: Horseradish peroxidase was diluted serially in 10-fold steps in a buffer containing 51 mM phosphate, 24 mM citrate, pH 5.0. Spot volumes of 1 μL of each stock were applied to either nitrocellulose (0.45 micron, Schleicher and Schuell) or IMMUNODYNE™ nylon immunoaffinity membrane (5 micron, Pall). The membranes were allowed to air dry and then immersed in filtered substrate solutions containing 2 mg/mL of substrate compound and 0.68 μL/mL of 30% hydrogen peroxide in citrate/phosphate buffer. The reaction was quenched after approximately three minutes with a water rinse. The colored spots were quantitated with a reflectance densitometer (Gretag model 183). The results are presented in Table II in arbitrary units of color density.

[1] = target: T2, HRP conjugated anti RSV monoclonal antibody (Armoracia rusticana, UniProt P00433); assay: Sandwich immunoassay for RSV on IMMUNODYNE nylon membrane, HRP-labelled antibody, colored spot read with densitometer; format: biochemical, Horseradish; details: for intensity of the colored spot (color density): substrate 2 mg/mL
T2 sequence (P00433 31-338 limits assumed): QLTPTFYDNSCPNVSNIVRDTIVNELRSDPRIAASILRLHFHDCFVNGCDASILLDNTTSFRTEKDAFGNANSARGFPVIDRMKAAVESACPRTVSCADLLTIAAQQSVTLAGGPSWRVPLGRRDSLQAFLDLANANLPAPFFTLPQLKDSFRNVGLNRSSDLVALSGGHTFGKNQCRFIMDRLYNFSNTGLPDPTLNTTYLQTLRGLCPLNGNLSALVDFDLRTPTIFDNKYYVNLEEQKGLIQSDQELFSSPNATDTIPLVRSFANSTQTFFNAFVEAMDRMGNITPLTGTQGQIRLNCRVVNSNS
Description: Ten μg of anti RSV antibody in 2 μl of carbonate buffer (50 mM, pH 9.5) were applied to an IMMUNODYNE™ nylon membrane with a micropipette. The membrane was incubated with a TRIS buffered solution of casein to block the remaining sites, and dried. The membrane was assembled into a device which allows liquids to be passed through the membrane and into an absorbent pad. Serial dilutions of a 300 ng stock of RSV infected HEp-2 cells were prepared in a buffer containing TRIS, sodium chloride, EDTA and a detergent. 150 μl of this material was passed through the membrane. Another antibody coated membrane was treated with 300 ng of uninfected cells as a control.
The membranes were washed with TRIS buffered saline (TBS) and incubated with HRP conjugated anti RSV monoclonal antibody in TRIS containing casein. After two washings with TBS buffer, the membranes were treated with citrate/phosphate buffered (pH 5.0) solutions of DAT and DAB (2 mg/mL) containing hydrogen peroxide. After a five minute incubation, the enzymatic reaction was stopped by the addition of TBS, and the intensity of the colored spots was compared using a densitometer (Model 183, Gretag Ltd., CH-8105 Regensdorf, Switzerland). The background control substracted results of this experiment are presented in Table 1 in arbitrary units of color density.

[2] = IMMUNODYNE nylon membrane, amount of HRP 30 pg
[3] = IMMUNODYNE nylon membrane, amount of HRP 0.3 ng
[4] = IMMUNODYNE nylon membrane, amount of HRP 3 ng
[5] = IMMUNODYNE nylon membrane, amount of HRP 30 ng
[6] = IMMUNODYNE nylon membrane, amount of HRP 0.3 mg
[7] = Nitrocellulose membrane, amount of HRP 30 pg
[8] = Nitrocellulose membrane, amount of HRP 0.3 ng
[9] = Nitrocellulose membrane, amount of HRP 3 ng
[10] = Nitrocellulose membrane, amount of HRP 30 ng
[11] = Nitrocellulose membrane, amount of HRP 0.3 mg
[12] = 11 ng of infected cells, pH 5.0, five minute incubation
[13] = 33 ng of infected cells, pH 5.0, five minute incubation
[14] = 100 ng of infected cells, pH 5.0, five minute incubation
[15] = 300 ng of RSV infected HEp-2 cells, pH 5.0, hydrogen peroxide, five minute incubation, background control subtracted
[16] = Control: 300 ng of uninfected cells, pH 5.0, five minute incubation

Structure (SMILES) | color density of spot (Horseradish peroxidase; [2]) | color density of spot (Horseradish peroxidase; [3]) | color density of spot (Horseradish peroxidase; [4]) | color density of spot (Horseradish peroxidase; [5]) | color density of spot (Horseradish peroxidase; [6]) | color density of spot (Horseradish peroxidase; [7]) | color density of spot (Horseradish peroxidase; [8]) | color density of spot (Horseradish peroxidase; [9]) | color density of spot (Horseradish peroxidase; [10]) | color density of spot (Horseradish peroxidase; [11]) | intensity of the colored spot (color density) [1, 12] | intensity of the colored spot (color density) [1, 13] | intensity of the colored spot (color density) [1, 14] | intensity of the colored spot (color density) [1, 15] | color reading on the densitometer, in words ([1]; 300 ng of infected cells) | intensity of the colored spot (color density) [1, 16] | amount of infected cells down to which stable, deeply colored spots well above control values were obtained ([1]; RSV infected HEp-2 cells) [ng]
Nc1cc(Cl)c(Cl)cc1N [4,5-Dichloro-1,2-phenylenediamine] | .00 arbitrary units | .00 arbitrary units | .10 arbitrary units | .41 arbitrary units | .48 arbitrary units | .02 arbitrary units | .10 arbitrary units | .31 arbitrary units | .43 arbitrary units | .60 arbitrary units | – | – | – | – | – | – | –
Cc1cc(N)c(N)cc1C [4,5-Dimethyl-1,2-phenylenediamine] | .00 arbitrary units | .05 arbitrary units | .22 arbitrary units | .50 arbitrary units | .53 arbitrary units | .03 arbitrary units | .11 arbitrary units | .22 arbitrary units | .43 arbitrary units | .55 arbitrary units | – | – | – | – | – | – | –
Nc1ccc(Cl)cc1N [4-Chloro-1,2-phenylenediamine] | .06 arbitrary units | .12 arbitrary units | .68 arbitrary units | 1.89 arbitrary units | 2.24 arbitrary units | .09 arbitrary units | .26 arbitrary units | .55 arbitrary units | .87 arbitrary units | 1.25 arbitrary units | – | – | – | – | – | – | –
Nc1ccc(-c2ccc(N)c(N)c2)cc1N [DAB, 3,3'-diaminobenzidine, reference compound] | .00 arbitrary units | .04 arbitrary units | .22 arbitrary units | .78 arbitrary units | 1.67 arbitrary units | .00 arbitrary units | .04 arbitrary units | .22 arbitrary units | .43 arbitrary units | 1.03 arbitrary units | .04 arbitrary units | .03 arbitrary units | .04 arbitrary units | .07 arbitrary units | barely perceptible color reading | 0 arbitrary units | –
Cc1ccc(N)c(N)c1 [DAT, 3,4 Diaminotoluene] | .04 arbitrary units | .21 arbitrary units | .54 arbitrary units | .85 arbitrary units | .99 arbitrary units | .03 arbitrary units | .09 arbitrary units | .10 arbitrary units | .28 arbitrary units | .38 arbitrary units | .28 arbitrary units | .37 arbitrary units | .57 arbitrary units | .82 arbitrary units | – | .24 arbitrary units | 33
Cc1cc(-c2cc(C)c(N)c(C)c2)cc(C)c1N [TMB, 3,3',5,5'-tetramethylbenzidine, reference compound] | .00 arbitrary units | .00 arbitrary units | .11 arbitrary units | .19 arbitrary units | .23 arbitrary units | .01 arbitrary units | .04 arbitrary units | .08 arbitrary units | .09 arbitrary units | .09 arbitrary units | – | – | – | – | – | – | –

Reference: US5079150A, “High sensitivity detection of peroxidase activity” (Becton, Dickinson and Company, priority 1988, dated 1992)
